Data: paper PMC5653977 (EMBO Molecular Medicine, 2017)
Counter-ions that a name gives are not always drawn.

What follows are compounds tested on NRG1-ERBB4 signaling (assay: Nrg1-ERBB4-PIK3R1 split TEV co-culture compound screen of the NIH Clinical Collection). Conditions: NIH Clinical Collection NCC-003 raw data; compounds ranked by Z-score; 'flagged' given instead of a Z-score.
Assay type: cell-based, human

| SMILES | Z-SCORE |
| --- | --- |
| CCC(COC(=O)c1cc(OC)c(OC)c(OC)c1)(c1ccccc1)N(C)C.O=C(O)/C=C\C(=O)O (stereo not shown) [TRIMEBUTINE MALEATE] | -1.14 |
| COc1cccc2c1C(=O)c1c(O)c3c(c(O)c1C2=O)C[C@@](O)(C(=O)CO)C[C@@H]3O[C@H]1C[C@H](N)[C@H](O)[C@H](C)O1 [DOXORUBICIN HYDROCHLORIDE] | flagged |
| C=CCc1ccc(O)c(-c2ccc(O)c(CC=C)c2)c1 [HONOKIOL] | flagged |
| OCCOCCN1CCN(C2=Nc3ccccc3Sc3ccccc32)CC1 [QUETIAPINE HEMIFUMARATE] | -1.26 |
| Nc1nc(Cl)nc2c1ncn2[C@H]1C[C@H](O)[C@@H](CO)O1 [2-Chloro-2'-deoxyadenosine, reference compound] | -3.5 |
| CC(=O)O[C@]1(C(C)=O)CC[C@H]2[C@@H]3C=C(C)C4=CC(=O)CC[C@]4(C)[C@H]3CC[C@@]21C [MEGESTROL ACETATE] | -1.44 |
| CC[C@]1(O)C[C@@H]2CN(CCc3c([nH]c4ccccc34)[C@@](C(=O)OC)(c3cc4c(cc3OC)N(C)[C@H]3[C@@](O)(C(N)=O)[C@H](O)[C@]5(CC)C=CCN6CC[C@]43[C@@H]65)C2)C1 [VINDESINE SULFATE] | flagged |

Same assay, conditions: compound screen of the NIH Clinical Collection, sheet raw data NCC-003; compounds ranked by Z-score

| SMILES | Z-SCORE |
| --- | --- |
| CC[C@@H]1C=CC=CC[C@H](C)[C@@H](O)[C@@H](C)C(=O)[C@H](C)[C@@H](O)[C@H](C)C(=O)[C@H](C)[C@@H](O)[C@H](C)C=CC(=O)O[C@H]2[C@@H](C)[C@@H](CC1)O[C@@]1(CC[C@@H](C)[C@@H](C[C@H](C)O)O1)[C@@H]2C [[…]] | -0.54 |
| COc1ccc(C(CN(C)C)C2(O)CCCCC2)cc1 (stereo not shown) [VENLAFAXINE HCl] | 0.54 |
| CN(CCOc1ccc(CC2SC(=O)NC2=O)cc1)c1ccccn1.Cl (stereo not shown) [ROSIGLITAZONE HCl] | 0.11 |
| Nc1ncnc2c1ncn2[C@@H]1O[C@H](CO)C[C@H]1O [3'-Deoxydenosine, reference compound] | 5.88 |
| O=C([O-])Cc1ccccc1Nc1c(Cl)cccc1Cl.[Na+] | 0.02 |
| O=C1[C@H](CC[C@H](O)c2ccc(F)cc2)[C@@H](c2ccc(O)cc2)N1c1ccc(F)cc1 [EZETIMIBE] | 0.64 |
| CC(C)c1nc(CN(C)C(=O)N[C@H](C(=O)N[C@@H](Cc2ccccc2)C[C@H](O)[C@H](Cc2ccccc2)NC(=O)OCc2cncs2)C(C)C)cs1 [RITONAVIR] | -0.37 |
| c1ccc2c(c1)Nc1ccccc1S2 [PHENOTHIAZINE] | -0.03 |
| Cc1c(O)c(=O)ccn1C | 0.19 |
| COCCCC/C(=N\OCCN)c1ccc(C(F)(F)F)cc1 [Fluvoxamine] | -0.2 |
| CC(=O)NCCCCCCNC(C)=O | 1.08 |
| CN1C(=O)CC[C@H]1c1cccnc1 [(-)-Cotinine] | -0.57 |
| CNS(=O)(=O)Cc1ccc2[nH]cc(CCN(C)C)c2c1 [SUMATRIPTAN SUCCINATE] | -0.07 |
| COCCCOc1ccnc(C[S+]([O-])c2nc3ccccc3[nH]2)c1C (stereo not shown) [RABEPRAZOLE] | -0.02 |
| Cl.Cn1c(NCCN(CCO)CCCc2ccc([N+](=O)[O-])cc2)cc(=O)n(C)c1=O [NIFEKALANT HCl] | 1.92 |
| O=C(O)CCNC(=O)c1ccc(/N=N/c2ccc(O)c(C(=O)O)c2)cc1 [BALSALAZIDE] | 0.84 |
| CC(=O)CCCCn1cnc2c1c(=O)n(C)c(=O)n2C [LOMIFYLLINE] | -0.7 |
| CC(=O)Oc1ccccc1C(=O)Nc1ncc([N+](=O)[O-])s1 [NITAZOXANIDE] | 1.04 |
| NC1=NC(=O)C(c2ccccc2)O1 (stereo not shown) [Pemoline] | -0.71 |
| CN(C)CCC=C1c2ccccc2COc2ccccc21 [Doxepin] | 2.16 |

| SMILES | Z-SCORE |
| --- | --- |
| O=c1c(O[C@@H]2O[C@H](CO)[C@H](O)[C@H](O)[C@H]2O)c(-c2ccc(O)c(O)c2)oc2cc(O)cc(O)c12 [HYPEROSIDE] | 0.68 |
| O=c1c(O[C@@H]2O[C@H](CO)[C@@H](O)[C@H](O)[C@H]2O)c(-c2ccc(O)c(O)c2)oc2cc(O)cc(O)c12 [Isoquercitrin] | 0.55 |
| C=C(C)CN1CC[C@]23c4c5ccc(O)c4O[C@H]2c2[nH]c4ccccc4c2C[C@@]3(O)C1C5.Cl.O [SDM25N] | -0.11 |
| Cc1ccc(-c2nc3ccc(C)cn3c2CC(=O)N(C)C)cc1 [ZOLPIDEM TARTRATE] | -0.69 |
| CC(=O)O[C@H]1C[C@@H]2CC[C@@H]3[C@H](CC[C@@]4(C)[C@H]3C[C@H]([N+]3(C)CCCCC3)[C@@H]4OC(C)=O)[C@@]2(C)C[C@@H]1[N+]1(C)CCCCC1 [Pancuronium] | -0.32 |
| CN1CC(=O)N2[C@H](c3ccc4c(c3)OCO4)c3[nH]c4ccccc4c3C[C@@H]2C1=O | 0.97 |
| C[C@H]1C[C@H]2[C@@H]3CCC4=CC(=O)C=C[C@]4(C)[C@@]3(Cl)[C@@H](O)C[C@]2(C)[C@@]1(O)C(=O)CO [Beclomethasone] | -0.67 |
| COc1cccc(C2(O)CCCCC2CN(C)C)c1 (stereo not shown) [Tramadol] | -0.17 |
| CCN(CC)C(=O)C1(c2ccccc2)CC1CN (stereo not shown) [Milnacipran] | 0.97 |
| COc1cc2c(cc1OC)C(=O)C(CC1CCN(Cc3ccccc3)CC1)C2 (stereo not shown) [Donepezil] | 0 |
| CCOC(=O)C1(c2ccccc2)CCN(CCC(C#N)(c2ccccc2)c2ccccc2)CC1 [DIPHENOXYLATE] | -0.45 |
| COc1cc2nc(N3CCN(C(=O)C4CCCO4)CC3)nc(N)c2cc1OC (stereo not shown) [Terazosin, reference compound] | -0.8 |
| Nc1ccn([C@@H]2CS[C@H](CO)O2)c(=O)n1 [LAMIVUDINE, reference compound] | 0.14 |
| Clc1cccc(Cl)c1NC1=NCCN1 | 0.34 |
| CS(=O)(=O)c1ccc(-c2cc(Br)sc2-c2ccc(F)cc2)cc1 | 0.49 |
| CN(C)CCc1c[nH]c2ccc(C[C@H]3COC(=O)N3)cc12 [Zolmitriptan] | 0.57 |
| CC[C@@]1(O)C(=O)OCc2c1cc1n(c2=O)Cc2cc3c(CN(C)C)c(O)ccc3nc2-1 [Topotecan HCl, reference compound] | 7.97 |
| CN1CCCC(n2nc(Cc3ccc(Cl)cc3)c3ccccc3c2=O)CC1 (stereo not shown) [AZELASTINE HCl] | -0.68 |
| Cc1ncc([N+](=O)[O-])n1CC(O)CCl (stereo not shown) [ORNIDAZOLE] | 2.22 |
| CNC(=C[N+](=O)[O-])NCCSCc1csc(CN(C)C)n1 [NIZATIDINE] | -0.53 |

Same assay, conditions: compounds at 10 μM, 24 h; PC12 split TEV assay cells co-cultured with Nrg1-expressing PC12 cells; analysed with cellHTS2

| SMILES | Z-SCORE |
| --- | --- |
| CC(C)NCC(O)COc1cccc2[nH]ccc12 (stereo not shown) [PINDOLOL, reference compound] | 6.52 |
| CCN(CC)CCNC(=O)c1cc(Cl)c(N)cc1OC.Cl [Maxolon, reference compound] | -1.12 |
| Nc1ncnc2c1ncn2[C@@H]1O[C@H](CO)C[C@H]1O [3'-Deoxydenosine, reference compound] | 5.88 |
| NS(=O)(=O)c1cc2c(cc1Cl)NCNS2(=O)=O [Hydrochlorothiazide, reference compound] | -0.03 |
| Clc1ccc2c(c1)C(N1CCNCC1)=Nc1ccccc1O2 [AMOXAPINE, reference compound] | 0.4 |
| CN(C)[C@@H]1C(O)=C(C(N)=O)C(=O)[C@@]2(O)C(O)=C3C(=O)c4c(O)ccc(Cl)c4[C@@H](O)[C@H]3C[C@@H]12 [Demeclocycline, reference compound] | 0.1 |
| O=C1CN(/N=C/c2ccc(-c3ccc([N+](=O)[O-])cc3)o2)C(=O)[N-]1.[Na+] [Dantrolene sodium salt, reference compound] | 0.78 |
| CCCNC(=O)NS(=O)(=O)c1ccc(Cl)cc1 [Chlorpropamide, reference compound] | -0.07 |
| Nc1nc(F)nc2c1ncn2[C@@H]1O[C@H](CO)[C@@H](O)[C@@H]1O [FLUDARABINE, reference compound] | 0.7 |
| CC(C)(C(=O)c1cccnc1)c1cccnc1 [METYRAPONE, reference compound] | 0.48 |
| CC(=O)/N=c1/sc(S(N)(=O)=O)nn1C [Methazolamide, reference compound] | 0.38 |
| NNCCc1ccccc1 [Phenelzine, reference compound] | -0.21 |
| Nc1nc(O)c2ncn(COC(CO)CO)c2n1 [Ganciclovir, reference compound] | -0.19 |
| CC(C)OC(=O)C(C)(C)Oc1ccc(C(=O)c2ccc(Cl)cc2)cc1 [FENOFIBRATE, reference compound] | 0.77 |
| C=C(CC)C(=O)c1ccc(OCC(=O)O)c(Cl)c1Cl [ETHACRYNIC ACID, reference compound] | -1.25 |
| COc1cc([C@@H]2c3cc4c(cc3[C@H](O)[C@H]3COC(=O)[C@H]23)OCO4)cc(OC)c1OC [Podofilox, reference compound] | flagged |
| CC(C)(C)NCC(O)COc1cccc2c1CC(O)C(O)C2 (stereo not shown) [NADOLOL, reference compound] | 0.1 |
| C=CCN1CC[C@]23c4c5ccc(O)c4O[C@H]2C(=O)CC[C@@]3(O)[C@H]1C5 [NALOXONE HYDROCHLORIDE, reference compound] | -0.39 |
| COc1c(N2CCNC(C)C2)c(F)cc2c(=O)c(C(=O)O)cn(C3CC3)c12 (stereo not shown) [Gatifloxacin, reference compound] | 1.07 |
| CC1COc2c(N3CCN(C)CC3)c(F)cc3c(=O)c(C(=O)O)cn1c23 (stereo not shown) [OFLOXACIN, reference compound] | 0.8 |
| CN1CCN(C2=Nc3cc(Cl)ccc3Nc3ccccc32)CC1 [Clozapine, reference compound] | -0.31 |
| COc1cc2nc(N3CCN(C(=O)C4CCCO4)CC3)nc(N)c2cc1OC (stereo not shown) [Terazosin, reference compound] | -1.96 |
| Nc1ccn([C@@H]2CS[C@H](CO)O2)c(=O)n1 [LAMIVUDINE, reference compound] | 0.33 |
| Nc1nc(Cl)nc2c1ncn2[C@H]1C[C@H](O)[C@@H](CO)O1 [2-Chloro-2'-deoxyadenosine, reference compound] | -3.5 |
| Cc1cccc(CN2CCN(C(c3ccccc3)c3ccc(Cl)cc3)CC2)c1.Cl (stereo not shown) [Duremesin, reference compound] | -0.76 |
| CC[C@@]1(O)C(=O)OCc2c1cc1n(c2=O)Cc2cc3c(CN(C)C)c(O)ccc3nc2-1 [Topotecan HCl, reference compound] | 7.97 |
| COc1c2occc2cc2ccc(=O)oc12 [Methoxsalen, reference compound] | 0.16 |
| Cc1noc(NS(=O)(=O)c2ccc(N)cc2)c1C [Sulfisoxazole, reference compound] | 1.21 |
| NS(=O)(=O)c1cc2c(cc1Cl)N=CNS2(=O)=O [Chlorothiazide, reference compound] | 0.42 |
